Reference: US20250206779A1, “ANGIOTENSIN-(1-9) ANALOGUE BASED ON D AMINO ACIDS, PHARMACEUTICAL COMPOSITIONS AND USES THEREOF” (UNIVERSIDAD DE CHILE, priority 2021, published 2025)
Where a SMILES comes first, the peptide text is derived from it. [ ]: non-standard residue; d: D form.

Experiments:
[1] = tested on: neonatal rat ventricular myocytes (NRVM); experiment: Cardiomyocyte death by simulated ischemia/reperfusion (LDH release, procaspase 3 cleavage); type: cell-based
Description: Neonatal rat ventricular myocytes (NRVM) were isolated from one- to three-day-old Sprague Dawley rats. Cells were pre-plated to discard non-myocyte cells and the myocyte-enriched fraction was plated on gelatin-precoated 35 mm dishes and grown in DMEM/M199 (4:1) medium with 10% (w/v) fetal bovine serum (FBS) and […] bromodeoxyuridine for 24 h before the experiments. Ischemia was induced by incubating the cardiomyocytes in ischemia-mimicking solution (ischemic medium) containing HEPES 5 mM, 2-deoxy-D-glucose 10 mM, NaCl 139 mM, KCl 12 mM, MgCl2 0.5 mM, CaCl2 1.3 mM and lactic acid 20 mM, pH 6.2, under O2<1%, 5% CO2 and 95% nitrogen at 37° C. for 8 h. Subsequently for simulated reperfusion, ischemia-mimicking solution was replaced by DMEM/M199 (4:1) containing 10% (w/v) FBS and NRVM were incubated for 16 h in 95% air and 5% CO2. Parallel NRVM were assigned to a control group which was exposed to normoxic conditions in a control medium containing (in mM) 5 HEPES 5 mM, D-glucose 23 mM, NaCl 139 mM, KCl 4.7 mM, MgCl2 0.5 mM, CaCl2 1.3 mM, pH 7.4 under 95% air and 5% CO2 for 8 h. Then, control medium was replaced with DMEM/M199 (4:1) containing 10% (w/v) FBS under 95% air and 5% CO2 for 16 h.
For the evaluation of necrosis, the activity of lactate dehydrogenase (LDH) was measured spectrophotometrically at 490 nm in samples of the culture medium after normoxia (control) and sl/R both at 8 h and 16 h, using the kit CytoTox 96® Non-Radioactive Cytotoxicity Assay, Promega (Corp., Madison, WI, USA), according to the manufacturer's instructions. Apoptosis was evaluated by measuring procaspase 3 cleavage to caspase 3 by western blotting.

[2] = tested on: spontaneously hypertensive rats (SHR); experiment: Fibroblast proliferation in cardiac tissue of SHR, Ki67 immunohistochemistry; type: in vivo, rat; details: SHR, 1,200 ng/kg/min, 14 days
Description: Experimental animal model. All procedures were performed in accordance with the Guide for the Care and Use of Laboratory Animals published by the U.S. National Institutes of Health (NIH Publication 85 23, 1985) and approved by our Institutional Bioethics Committee. The animals were housed under the continuous professional monitoring of the Medical Veterinary staff in the animal facility of the Pontificia Universidad Católica de Chile, under the following conditions: 12-h light-dark cycle; 21° C. ambient temperature; 50% humidity; adequate ventilation; noise-free environment; and food and water ad libitum. […] Systolic blood pressure (SBP), diastolic blood pressure (DBP) and body weight (BW) were measured at the end of the treatment period and the animals were then sacrificed.
Immunohistochemistry for Ki67. Proliferation of fibroblast, another marker of fibrosis, was assessed by measuring the presence of Ki-67 positive nuclei. […] Two blinder researchers counted manually positive cells in 10 high-power fields (×40). […] The percentage of positive Ki67 cells was calculated. As observed with the above cardiac fibrosis marker, collagen content assessed by picrosirius red staining, in hypertensive SHR, an increase in fibroblast with Ki-67 positive nuclei were found, confirming the occurrence of cardiac fibrosis.

In the case of `CC[C@@H](C)[C@@H](NC(=O)[C@@H](Cc1c[nH]cn1)NC(=O)[C@H]1CCCN1C(=O)[C@@H](Cc1ccccc1)NC(=O)[C@H](N)Cc1c[nH]cn1)C(=O)N[C@H](Cc1ccc(O)cc1)C(=O)N[C@@H](C(=O)N[C@H](CCCNC(=N)N)C(=O)N[C@H](CC(=O)O)C(=O)O)C(C)C` [retro-inverse angiotensin-(1-9), NH2-^DH^DF^DP^DH^DI^DY^DV^DR^DD-COOH] (H-[dH][dF][dP][dH][dI][dY][dV][dR][dD]-OH), the “cardiomyocyte apoptosis induced by ischemia reperfusion (procaspase 3 cleavage)” value ([1]; 10 μM peptide, western blotting) is reported as “inhibited”, the “cardiomyocyte necrosis induced by ischemia reperfusion (LDH release)” value ([1]; 1 and 10 μM peptide) is reported as “Significative necrosis inhibition” and the “cardiomyocyte necrosis induced by ischemia reperfusion (LDH release)” value ([1]; simulated ischemia 8 h / reperfusion 16 h) is reported as “inhibited in a dose response manner”. For the same compound, the “increase of fibroblast with Ki-67 positive nuclei induced by hypertension” value [2] was “reversed the increase”.
